The supplement of paper PMC13380429

Tests used:
Conditions in all cases: 72 h
Caco-2 [1] = assay: cell viability relative to DMSO; higher = less toxic
Calu-3 [2] = assay: as above
HepG2 [3] = assay: as above
U2OS [4] = assay: as above
Vero E6 [5] = assay: as above
Caco-2 [6] = assay: relative viability EC50 (midpoint between 100% and the lowest measured viability); higher = less toxic
Calu-3 [7] = assay: as above
HepG2 [8] = assay: as above
U2OS [9] = assay: as above
Vero E6 [10] = assay: as above
Caco-2 [11] = assay: drug sensitivity score (DSS) for viability; higher = more toxic; extreme values may be limits of the assay
Calu-3 [12] = assay: as above
HepG2 [13] = assay: as above
U2OS [14] = assay: as above
Vero E6 [15] = assay: as above

Row | SMILES | cell viability (Caco-2 [1]; 1 nM) [%] | cell viability (Caco-2 [1]; 10 nM) [%] | cell viability (Caco-2 [1]; 100 nM) [%] | cell viability (Caco-2 [1]; 1000 nM) [%] | cell viability (Caco-2 [1]; 10000 nM) [%] | cell viability (Calu-3 [2]; 1 nM) [%] | cell viability (Calu-3 [2]; 10 nM) [%] | cell viability (Calu-3 [2]; 100 nM) [%] | cell viability (Calu-3 [2]; 1000 nM) [%] | cell viability (Calu-3 [2]; 10000 nM) [%] | cell viability (HepG2 [3]; 1 nM) [%] | cell viability (HepG2 [3]; 10 nM) [%] | cell viability (HepG2 [3]; 100 nM) [%] | cell viability (HepG2 [3]; 1000 nM) [%] | cell viability (HepG2 [3]; 10000 nM) [%] | cell viability (U2OS [4]; 1 nM) [%] | cell viability (U2OS [4]; 10 nM) [%] | cell viability (U2OS [4]; 100 nM) [%] | cell viability (U2OS [4]; 1000 nM) [%] | cell viability (U2OS [4]; 10000 nM) [%] | cell viability (Vero E6 [5]; 1 nM) [%] | cell viability (Vero E6 [5]; 10 nM) [%] | cell viability (Vero E6 [5]; 100 nM) [%] | cell viability (Vero E6 [5]; 1000 nM) [%] | cell viability (Vero E6 [5]; 10000 nM) [%] | relative viability EC50 (Caco-2 [6]) [µM] | relative viability EC50 (Calu-3 [7]) [µM] | relative viability EC50 (HepG2 [8]) [µM] | relative viability EC50 (U2OS [9]) [µM] | relative viability EC50 (Vero E6 [10]) [µM] | drug sensitivity score (Caco-2 [11]) | drug sensitivity score (Calu-3 [12]) | drug sensitivity score (HepG2 [13]) | drug sensitivity score (U2OS [14]) | drug sensitivity score (Vero E6 [15])
1 | Cc1cc(=O)oc2c(C=O)c(O)ccc12 [4-mu-8C] | 98 | 95.5 | 101 | 104 | 87.1 | 102 | 92.7 | 118 | 110 | 97.9 | 106 | 106 | 111 | 87.4 | 89.3 | 107 | 101 | 97.8 | 100 | 99 | 97.6 | 104 | 102 | 102 | 100 | > 10 | > 10 | > 10 | > 10 | > 10 | 0 | 0 | 0.6 | 0 | 0
2 | CC(=O)O[C@@]12CO[C@@H]1C[C@H](O)[C@@]1(C)C(=O)[C@H](O)C3=C(C)[C@@H](O)C[C@@](O)([C@@H](OC(=O)c4ccccc4)[C@H]21)C3(C)C [10-deacetylbaccatin] | 102 | 110 | 92.6 | 99 | 102 | 105 | 95.6 | 94.9 | 97.4 | 108 | 93.9 | 105 | 97.3 | 108 | 108 | 98.4 | 99.3 | 104 | 102 | 107 | 97.6 | 96.1 | 95.6 | 95.1 | 106 | > 10 | > 10 | > 10 | > 10 | > 10 | 0 | 0 | 0 | 0 | 0
3 | CC(=N)NCc1cccc(CN)c1 [1400W] | 112 | 92.6 | 103 | 92.2 | 103 | 102 | 93 | 91.2 | 108 | 109 | 102 | 100 | 105 | 94.4 | 97 | 103 | 94.6 | 104 | 98 | 104 | 103 | 98.3 | 99.9 | 102 | 97.7 | > 10 | > 10 | > 10 | > 10 | > 10 | 0 | 0 | 0 | 0 | 0
4 | COc1c(Nc2ccc(S(C)(=O)=O)nc2C)ncnc1OC1CCN(C(=O)OC(C)C)CC1 [APD597] | 96.5 | 96.2 | 103 | 93.4 | 90.2 | 106 | 105 | 106 | 109 | 98.7 | 99.6 | 104 | 94.4 | 94.6 | 86.3 | 99.5 | 99.1 | 99.6 | 99.7 | 100 | 106 | 98.2 | 97 | 100 | 95.5 | > 10 | > 10 | > 10 | > 10 | > 10 | 0 | 0 | 0.1 | 0 | 0
5 | COc1cc(OC)cc(-c2ccc3c(-c4ccc(F)cc4)n[nH]c3n2)c1 [APcK-110] | 94.5 | 98.3 | 97.6 | 96.3 | 99.9 | 99.5 | 110 | 104 | 103 | 97.3 | 99.8 | 90.1 | 101 | 98.1 | 107 | 93.5 | 99.5 | 97.9 | 99.9 | 103 | 99.1 | 89.9 | 97.1 | 93.3 | 108 | > 10 | > 10 | > 10 | > 10 | > 10 | 0 | 0 | 0 | 0 | 0
6 | COc1ccc(-c2ccc3c(N4CCOC[C@@H]4C)nc(N4CCOC[C@@H]4C)nc3n2)cc1CO [AZD8055] | 94.3 | 88.2 | 54 | 34.6 | 28.2 | 101 | 83.7 | 37.6 | 26.4 | 27.2 | 99.4 | 90.8 | 54.7 | 27.1 | 18.9 | 99 | 102 | 57.5 | 22.8 | 16.1 | 96.9 | 89.7 | 69.9 | 40.1 | 30.3 | 0.0545 | 0.0265 | 0.0808 | 0.101 | 0.123 | 18.8 | 23 | 19.7 | 20 | 15
